The values that follow come from ChEMBL document CHEMBL1201862, “PubChem BioAssay data set” (2004).

Activity calls are given as the source filed them. Some results are limits rather than exact numbers.

In one assay the test system is INS1. The assay is described as follows: beta cell apoptosis inhibitors, cytokine rescue, dose response, luminescence, retest (AID 449756).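 Further: cell death triggered by IL-1 beta plus TNF-alpha plus IFN-gamma mixture; protective hits raise ATP signal compared with cytokine alone wells.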 The assay is classed as functional, cell-based. The note with it: Rattus norvegicus.
The next assay concerns the target Melanocortin receptor 4 (Homo sapiens, UniProt P32245). The assay is described as follows: MC4R antagonist potency on cAMP, dose response, cell-based, TR-FRET, biased antagonists (AID 602298).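 Further: antagonist potency against agonist-stimulated cAMP production.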 The assay is classed as functional.
The target in the next assay is CAAX prenyl protease 1 (Saccharomyces cerevisiae S288c, UniProt P47154). The assay is described as follows: Ste24 protease inhibitors, dose response, biochemical, S. cerevisiae, plate reader, cherry-pick (AID 488815).
Sequence of CAAX prenyl protease 1 (P47154 whole entry): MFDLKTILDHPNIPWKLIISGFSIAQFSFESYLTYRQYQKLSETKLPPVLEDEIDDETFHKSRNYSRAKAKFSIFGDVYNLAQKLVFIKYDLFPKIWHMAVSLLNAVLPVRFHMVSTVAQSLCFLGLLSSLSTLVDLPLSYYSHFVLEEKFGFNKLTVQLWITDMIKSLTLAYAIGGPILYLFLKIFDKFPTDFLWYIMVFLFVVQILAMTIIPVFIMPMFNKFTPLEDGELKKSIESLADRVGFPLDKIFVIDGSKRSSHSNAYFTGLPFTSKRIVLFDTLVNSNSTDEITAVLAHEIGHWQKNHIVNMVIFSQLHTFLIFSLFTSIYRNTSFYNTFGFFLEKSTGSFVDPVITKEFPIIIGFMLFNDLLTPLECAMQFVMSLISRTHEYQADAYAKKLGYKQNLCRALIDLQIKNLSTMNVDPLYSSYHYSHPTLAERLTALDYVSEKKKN
For assay [1], the system named is HEK293. The assay is described as follows: NOD1 signaling inhibitors, primary screen, cell-based, luminescence, uHTS (AID 1578). The assay is classed as functional. The note with it: Homo sapiens.
A further assay has as its target Fatty acid synthase (Homo sapiens, UniProt P49327). The assay is described as follows: FAS thioesterase domain inhibitors, dose response, biochemical, kinetic fluorescence intensity (AID 624326).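 Further: rate of fluorescence rise from hydrolysis of a fluorogenic O-methyl fluorescein ester substrate.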 It is filed as functional.
The target in assay [2] is Nucleotide-binding oligomerization domain-containing protein 2 (Homo sapiens, UniProt Q9HC29). The assay is described as follows: NOD2 signaling inhibitors, cell-based, luminescence, uHTS, HEK293 (AID 1566). It is filed as functional.
Sequence of Nucleotide-binding oligomerization domain-containing protein 2 (Q9HC29 whole entry, the tested form may be a part): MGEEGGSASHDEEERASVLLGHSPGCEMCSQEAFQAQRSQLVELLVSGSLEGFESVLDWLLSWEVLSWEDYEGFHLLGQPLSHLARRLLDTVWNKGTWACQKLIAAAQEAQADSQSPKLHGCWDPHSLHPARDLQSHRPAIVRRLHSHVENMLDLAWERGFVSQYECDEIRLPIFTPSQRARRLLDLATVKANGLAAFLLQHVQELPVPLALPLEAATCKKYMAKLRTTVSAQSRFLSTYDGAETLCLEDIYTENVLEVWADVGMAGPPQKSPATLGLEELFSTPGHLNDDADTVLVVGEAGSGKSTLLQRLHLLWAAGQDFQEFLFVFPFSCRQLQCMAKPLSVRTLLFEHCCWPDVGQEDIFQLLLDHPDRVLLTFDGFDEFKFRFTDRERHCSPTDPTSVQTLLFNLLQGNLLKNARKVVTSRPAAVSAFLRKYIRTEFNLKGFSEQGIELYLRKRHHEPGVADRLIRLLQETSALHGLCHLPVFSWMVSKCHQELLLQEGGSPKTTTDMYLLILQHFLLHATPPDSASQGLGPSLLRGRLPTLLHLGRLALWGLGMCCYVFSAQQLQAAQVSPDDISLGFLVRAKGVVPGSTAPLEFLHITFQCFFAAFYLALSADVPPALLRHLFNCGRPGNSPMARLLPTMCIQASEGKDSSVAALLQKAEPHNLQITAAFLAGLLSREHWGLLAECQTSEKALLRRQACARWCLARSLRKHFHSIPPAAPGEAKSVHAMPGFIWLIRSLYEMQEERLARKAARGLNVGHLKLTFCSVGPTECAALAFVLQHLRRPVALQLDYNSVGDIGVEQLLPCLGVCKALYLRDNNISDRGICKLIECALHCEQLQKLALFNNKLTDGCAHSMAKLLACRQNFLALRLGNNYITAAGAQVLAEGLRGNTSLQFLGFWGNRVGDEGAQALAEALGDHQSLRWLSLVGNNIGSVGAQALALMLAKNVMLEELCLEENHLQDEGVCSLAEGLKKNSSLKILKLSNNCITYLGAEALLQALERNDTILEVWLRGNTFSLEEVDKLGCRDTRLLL
In assay [3] the test system is HEK293. The assay is described as follows: cells. It is filed as functional, cell-based. The note with it: Homo sapiens.
The target of the next assay is Paired box protein Pax-8 (Homo sapiens, UniProt Q06710). The assay is described as follows: inhibitors of PAX8-driven TPO luciferase reporter, dose response, RMG-I cells, cherry-pick (AID 687027).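 Further: luciferase reporter driven by Pax8 target thyroperoxidase promoter measured by SteadyGlo luminescence.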 The assay is classed as functional, cell-based.
Sequence of Paired box protein Pax-8 (Q06710 whole entry): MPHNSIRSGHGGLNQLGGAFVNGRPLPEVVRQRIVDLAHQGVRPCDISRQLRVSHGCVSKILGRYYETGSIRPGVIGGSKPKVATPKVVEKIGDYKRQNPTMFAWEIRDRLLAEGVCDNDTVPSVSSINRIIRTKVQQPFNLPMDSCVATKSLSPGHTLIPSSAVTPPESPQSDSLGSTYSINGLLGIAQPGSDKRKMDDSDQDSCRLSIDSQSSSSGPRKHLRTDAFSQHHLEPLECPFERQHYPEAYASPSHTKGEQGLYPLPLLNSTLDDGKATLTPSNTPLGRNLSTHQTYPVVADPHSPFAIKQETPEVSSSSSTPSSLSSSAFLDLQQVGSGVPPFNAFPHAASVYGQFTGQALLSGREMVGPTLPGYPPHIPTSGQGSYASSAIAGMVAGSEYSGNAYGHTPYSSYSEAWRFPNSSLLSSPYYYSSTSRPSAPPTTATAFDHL
Assay [4] can be described thus: growth suppression of beta-catenin-knockout colon cells, dose response, cell-based, HCT116, human colon tumor (AID 1045).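 Further: HCT116 colon tumor cells with beta catenin knocked out; cells exposed to compound for 60 hours.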 It is filed as functional.
Assay [5] relates to HEK293. The assay is described as follows: cells. It is filed as functional, cell-based. The note with it: Homo sapiens. This is another data set of the same source.
Assay [6] has as its system HEK293. Kind of assay: NOD2 signaling inhibitors in MDP-stimulated cells, cell-based, uHTS, luminescence (AID 2001). The assay is classed as functional. The note with it: Homo sapiens.
Assay [7] relates to HEK293. Kind of assay: cells. The assay is classed as functional, cell-based. To be noted: Homo sapiens. The source holds these as a separate data set.
In another assay the target is T1, Hexokinase HKDC1 (Homo sapiens, UniProt Q2TB90).
T1 sequence (Q2TB90 whole entry): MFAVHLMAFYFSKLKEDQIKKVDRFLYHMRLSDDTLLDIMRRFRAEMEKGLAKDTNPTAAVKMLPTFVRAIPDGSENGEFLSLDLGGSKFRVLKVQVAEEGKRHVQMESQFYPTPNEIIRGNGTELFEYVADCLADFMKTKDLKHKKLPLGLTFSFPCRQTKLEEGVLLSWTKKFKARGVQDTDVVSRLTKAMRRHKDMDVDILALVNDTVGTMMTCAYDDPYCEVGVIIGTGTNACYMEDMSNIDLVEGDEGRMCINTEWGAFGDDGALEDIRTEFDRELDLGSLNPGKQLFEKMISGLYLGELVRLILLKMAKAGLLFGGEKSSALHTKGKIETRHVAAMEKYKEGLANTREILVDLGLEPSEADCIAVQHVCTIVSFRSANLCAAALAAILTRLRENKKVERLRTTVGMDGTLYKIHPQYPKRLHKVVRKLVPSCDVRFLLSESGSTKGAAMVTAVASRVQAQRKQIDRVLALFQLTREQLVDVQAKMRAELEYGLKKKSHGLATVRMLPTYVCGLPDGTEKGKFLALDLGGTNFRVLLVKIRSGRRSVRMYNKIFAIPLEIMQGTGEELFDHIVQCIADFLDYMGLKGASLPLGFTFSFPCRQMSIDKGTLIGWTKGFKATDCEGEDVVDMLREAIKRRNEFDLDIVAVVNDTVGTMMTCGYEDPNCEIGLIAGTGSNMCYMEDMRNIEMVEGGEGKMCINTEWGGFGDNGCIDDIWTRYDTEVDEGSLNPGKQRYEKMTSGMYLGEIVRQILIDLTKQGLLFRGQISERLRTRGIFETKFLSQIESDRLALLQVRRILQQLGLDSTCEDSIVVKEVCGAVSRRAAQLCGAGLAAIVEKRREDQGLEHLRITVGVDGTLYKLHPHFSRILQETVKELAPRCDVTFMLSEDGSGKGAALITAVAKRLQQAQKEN
Kind of assay: HKDC1 hexokinase inhibitors, dose response, biochemical, W721R variant (AID 504729). It is filed as functional.

In assay [8] the target is T2, DNA repair protein RAD52 homolog (Homo sapiens, UniProt P43351).
T2 sequence (P43351 whole entry): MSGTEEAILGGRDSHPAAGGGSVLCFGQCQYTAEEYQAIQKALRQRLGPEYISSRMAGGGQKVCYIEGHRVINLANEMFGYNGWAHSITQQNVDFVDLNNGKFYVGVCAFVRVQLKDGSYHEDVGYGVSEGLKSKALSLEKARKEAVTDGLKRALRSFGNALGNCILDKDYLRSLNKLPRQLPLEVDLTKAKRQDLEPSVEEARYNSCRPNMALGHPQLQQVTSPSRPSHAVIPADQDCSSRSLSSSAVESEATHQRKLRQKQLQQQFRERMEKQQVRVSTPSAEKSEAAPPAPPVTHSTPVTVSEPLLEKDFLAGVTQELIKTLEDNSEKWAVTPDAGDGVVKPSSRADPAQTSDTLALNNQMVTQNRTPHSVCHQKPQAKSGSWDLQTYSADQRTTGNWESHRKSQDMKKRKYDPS
It is filed as functional, biochemical.

Sequence of Melanocortin receptor 4 (P32245 whole entry): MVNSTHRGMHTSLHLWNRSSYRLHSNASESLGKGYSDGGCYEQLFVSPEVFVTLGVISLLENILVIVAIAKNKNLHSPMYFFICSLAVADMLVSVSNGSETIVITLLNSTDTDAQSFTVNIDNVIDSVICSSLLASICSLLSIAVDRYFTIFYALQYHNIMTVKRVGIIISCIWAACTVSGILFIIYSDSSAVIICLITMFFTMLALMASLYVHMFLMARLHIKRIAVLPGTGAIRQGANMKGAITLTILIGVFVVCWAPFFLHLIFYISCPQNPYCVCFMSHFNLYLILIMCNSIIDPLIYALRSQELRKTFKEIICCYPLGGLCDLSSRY
Sequence of Fatty acid synthase (P49327 whole entry, the tested form may be a part): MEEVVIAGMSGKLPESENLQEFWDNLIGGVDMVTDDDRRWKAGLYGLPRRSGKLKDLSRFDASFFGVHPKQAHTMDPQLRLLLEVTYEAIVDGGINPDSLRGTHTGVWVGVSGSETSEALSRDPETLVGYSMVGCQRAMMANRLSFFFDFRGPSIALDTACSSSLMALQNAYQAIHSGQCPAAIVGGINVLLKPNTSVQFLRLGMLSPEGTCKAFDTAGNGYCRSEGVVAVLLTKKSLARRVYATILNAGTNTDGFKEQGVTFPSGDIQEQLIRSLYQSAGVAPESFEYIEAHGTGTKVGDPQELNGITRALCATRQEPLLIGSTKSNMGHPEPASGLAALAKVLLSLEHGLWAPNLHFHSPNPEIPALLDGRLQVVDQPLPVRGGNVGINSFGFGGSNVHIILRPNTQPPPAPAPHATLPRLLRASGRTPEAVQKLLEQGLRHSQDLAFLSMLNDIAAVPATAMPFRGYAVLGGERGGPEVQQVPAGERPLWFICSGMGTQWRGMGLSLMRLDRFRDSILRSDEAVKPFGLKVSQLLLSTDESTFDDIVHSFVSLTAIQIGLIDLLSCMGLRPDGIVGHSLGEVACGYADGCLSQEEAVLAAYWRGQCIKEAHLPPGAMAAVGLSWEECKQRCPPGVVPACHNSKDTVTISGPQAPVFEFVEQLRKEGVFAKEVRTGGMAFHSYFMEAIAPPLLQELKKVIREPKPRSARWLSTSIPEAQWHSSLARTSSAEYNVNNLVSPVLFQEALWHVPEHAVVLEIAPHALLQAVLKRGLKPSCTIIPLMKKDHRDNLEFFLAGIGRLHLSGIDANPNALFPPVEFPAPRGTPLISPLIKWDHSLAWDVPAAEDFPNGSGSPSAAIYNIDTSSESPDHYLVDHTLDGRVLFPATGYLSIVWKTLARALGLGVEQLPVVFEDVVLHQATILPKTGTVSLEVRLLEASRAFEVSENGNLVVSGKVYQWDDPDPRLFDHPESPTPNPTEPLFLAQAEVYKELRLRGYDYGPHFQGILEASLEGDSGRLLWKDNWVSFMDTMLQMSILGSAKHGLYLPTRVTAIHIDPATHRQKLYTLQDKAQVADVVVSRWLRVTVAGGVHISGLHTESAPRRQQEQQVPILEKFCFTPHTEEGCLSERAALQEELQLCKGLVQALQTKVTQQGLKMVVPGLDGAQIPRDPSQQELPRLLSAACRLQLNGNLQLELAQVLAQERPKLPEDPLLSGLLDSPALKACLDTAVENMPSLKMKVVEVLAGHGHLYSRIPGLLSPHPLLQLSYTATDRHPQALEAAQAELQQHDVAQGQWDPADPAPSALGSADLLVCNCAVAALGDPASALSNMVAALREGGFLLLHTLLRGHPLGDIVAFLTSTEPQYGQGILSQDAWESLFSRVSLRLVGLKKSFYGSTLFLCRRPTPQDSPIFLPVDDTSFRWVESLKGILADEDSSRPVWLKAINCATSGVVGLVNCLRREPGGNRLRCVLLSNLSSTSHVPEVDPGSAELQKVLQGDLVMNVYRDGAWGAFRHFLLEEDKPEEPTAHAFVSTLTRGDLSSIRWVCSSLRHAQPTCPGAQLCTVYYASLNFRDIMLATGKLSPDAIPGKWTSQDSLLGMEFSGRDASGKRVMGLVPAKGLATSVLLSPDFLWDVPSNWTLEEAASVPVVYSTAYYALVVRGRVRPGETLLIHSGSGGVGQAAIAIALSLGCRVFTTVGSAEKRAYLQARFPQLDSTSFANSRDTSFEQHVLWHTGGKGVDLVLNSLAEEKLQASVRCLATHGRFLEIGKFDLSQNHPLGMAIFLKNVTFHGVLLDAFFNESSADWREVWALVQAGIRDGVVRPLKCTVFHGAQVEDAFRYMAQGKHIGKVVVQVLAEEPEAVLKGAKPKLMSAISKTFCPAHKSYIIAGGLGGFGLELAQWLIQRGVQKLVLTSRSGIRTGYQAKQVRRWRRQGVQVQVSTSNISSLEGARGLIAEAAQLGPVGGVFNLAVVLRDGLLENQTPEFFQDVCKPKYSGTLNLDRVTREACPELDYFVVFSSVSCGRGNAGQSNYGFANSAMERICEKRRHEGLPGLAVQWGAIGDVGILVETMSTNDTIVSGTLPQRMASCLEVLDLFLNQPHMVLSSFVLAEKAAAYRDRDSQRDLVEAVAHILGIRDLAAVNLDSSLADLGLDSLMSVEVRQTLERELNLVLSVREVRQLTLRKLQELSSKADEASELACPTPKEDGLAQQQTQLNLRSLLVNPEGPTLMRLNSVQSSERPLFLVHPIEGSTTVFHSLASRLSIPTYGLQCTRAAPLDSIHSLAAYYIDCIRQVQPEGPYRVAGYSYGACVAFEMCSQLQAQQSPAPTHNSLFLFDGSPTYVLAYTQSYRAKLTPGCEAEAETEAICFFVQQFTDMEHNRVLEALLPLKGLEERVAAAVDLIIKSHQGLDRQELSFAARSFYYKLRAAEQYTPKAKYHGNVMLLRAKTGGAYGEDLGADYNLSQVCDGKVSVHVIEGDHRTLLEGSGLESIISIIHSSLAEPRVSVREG

Turning to `CCCCCCCCCC[N+](C)(C)CC/C=C1/c2ccccc2Sc2ccc(Cl)cc21`, the AC50 in the assay on INS1 was 5.67 µM (active); on CAAX prenyl protease 1 it was 6.47 µM (active). The IC50 at Melanocortin receptor 4 is 31.2 µM (inactive).

`O=C(NCCc1ccccc1)C(c1cccs1)N(C(=O)CCl)c1ccc(Cl)cc1` (centres undefined): the results for the EC50 (with HEK293 [1]; in assay [2]; in [4]) were 5.3 µM (active), > 20 µM (inactive) and 2.62 µM (active), respectively. Further, the IC50 at Fatty acid synthase was 10.3 µM (active); in the assay on HEK293 [3] it was 4.24 µM (active); with HEK293 [5], 11.5 µM (active); in the assay on HEK293 [6], 5.36 µM (active); with HEK293 [7] it was > 20 µM (inactive); at Hexokinase HKDC1, 35.7 µM (inactive). For the same molecule, the AC50 at Paired box protein Pax-8 is 2.84 µM (active).

As for `COc1cc(/C=C/c2cc[n+](C)cc2)ccc1OCC(=O)Nc1ccc(Cl)c(Cl)c1`, in assay [8], the AC50 is 8.27 µM (active).
